Measured values as given in patent publication US7319094B2, “Increased and sustained in vivo gene expression using a nucleic acid, histone and amphipathic compound composition” (Rhode Island Hospital, priority 2001, dated 2008).
“Also recorded” adds a separate entry of the source.

How the values were obtained:
Format in all cases: cell-based, human
[1] = tested on: PNET2 cells induced to express AD7c-NTP; assay: Cell morphology by phase contrast microscopy; conditions: IPTG-induced AD7c-NTP; insulin 50 nM, IGF-1 5 ng/ml, NGF 2.5 ng/ml, PDGF 5 ng/ml; 24-48 hours
Protocol: (§1) To examine the effects of different growth factors on AD7c-NTP expression (and over-expression), the cells were serum-starved for 16 hours, after which IPTG (1-5 mM) was added to the medium. Four hours later, the cells were stimulated with insulin (50 nM), IGF-1 (5 ng/ml), NGF ([…]), or platelet-derived growth factor (PDGF; 5 ng/ml) for 24-72 hours. The cells were analyzed for morphological changes, viability, AD7c-NTP immunoreactivity, and expression of pro-apoptosis genes, survival genes, and phospho-tau.
Cells were serum-starved for 24 hours. However, since several hours of IPTG stimulation were required to induce AD7c-NTP gene expression or CAT activity, IPTG (3 mM) was added to the cultures after 16 hours of serum-starvation, i.e. 8 hours prior to growth factor stimulation. The cells were stimulated with insulin (50 nM), IGF-1 (5 ng/ml), NGF (2.5 ng/ml), or PDGF (5 ng/ml) and examined by phase contrast microscopy 24-48 hours later. PNET2 cells could be maintained in serum-free medium for 5 to 7 days with insulin, IGF-1, NGF, or PDGF as the only growth stimulus. In addition, each of these growth factors supports DNA synthesis and promotes modest outgrowth of multipolar neurites in PNET2 cells.

[2] = tested on: p53; assay: p53 expression, Western blot / MICE assay; conditions: PNET2 cells induced to express AD7c-NTP, growth factor stimulated
Source text: (§2) Standard Western blot assays wew used to measure cellular levels of p53, Bcl-2, p21/Waf1, phospho-tau, tau, c-fos, NTP, and activated (phosphorylated) forms of Erk mitogen activated protein (MAP) kinase, amino-terminal c-jun-activated kinase (pJNK), and p38/HOG1. Immunoprecipitation followed by Western blot analysis was used to measure p85 subunit associated with IRS1. For Western blot analysis of p53 Bcl-2, phospho-tau, tau, c-fos, and NTP, the cells were lysed in ice cold radioimmunoprecipitation assay (RIPA) buffer supplemented with protease and phosphatase inhibitors. For the immunoprecipitation studies, Western blot analysis of phospho-Erk, pJNK, and p38, and the PI3 kinase assays, the cells were harvested in Triton lysis buffer supplemented with protease and phosphatase inhibitors. Protein concentrations were measured using the BCA assay (Pierce, Rockford, Ill.). Samples containing 60 μg of protein were fractionated by sodium dodecyl sulfate polyacrylamide gel electrophoresis (SDS-PAGE), then transferred to PVDF membranes, and analyzed by Western immunoblotting. Immunoreactivity was detected with horseradish peroxidase conjugated secondary IgG and PicoWest enhanced chemiluminescence reagents (Pierce Chemical Company, Rockford, Ill.). CAT activity was measured using known methods.
(§3) The MICE assay is known in the art (e.g., as described by de la Monte et al., 1999, Biotechniques 26:107301076). The assay is a rapid and sensitive method for quantifying immunoreactivity in 96-well micro-cultures and combines the advantages of the enzyme-linked immunosorbant assay with immunocytochemical staining to permit sensitive in situ quantification of protein expression with values normalized to cell density. […] Immunoreactivity was detected using horseradish peroxidase conjugated secondary antibody (Pierce, Rockford, Ill.) and the TMB soluble peroxidase substrate (Pierce, Rockford, Ill.). Absorbances were measured at 450 nm using a Spectracount plate reader. […]

[3] = tested on: nitric oxide synthase-3 (NOS-3); assay: NOS-3 expression, Western blot; conditions: PNET2 cells induced to express AD7c-NTP; relative to PDGF-stimulated cultures
Source text: as §2, with “methods. […]” for “methods.”

[4] = tested on: p25; assay: p25 expression, Western blot / MICE assay; conditions: PNET2 cells induced to express AD7c-NTP
Source text: as §2, with “For the immunoprecipitation studies, Western blot analysis of phospho-Erk, pJNK, and p38, and the PI3 kinase assays, the cells were harvested in Triton lysis buffer supplemented with protease and phosphatase inhibitors.” left out
(§4) The MICE assay is known in the art (e.g., as described by de la Monte et al., 1999, Biotechniques 26:107301076). […] Immunoreactivity was detected using horseradish peroxidase conjugated secondary antibody (Pierce, Rockford, Ill.) and the TMB soluble peroxidase substrate (Pierce, Rockford, Ill.). […]

[5] = tested on: p21/Waf1; assay: p21/Waf1 expression, Western blot / MICE assay; conditions: PNET2 cells induced to express AD7c-NTP, growth factor stimulated
Source text: as §2, with “For the immunoprecipitation studies, Western blot analysis of phospho-Erk, pJNK, and p38, and the PI3 kinase assays, the cells were harvested in Triton lysis buffer supplemented with protease and phosphatase inhibitors.” left out
as §4

[6] = tested on: phospho-JNK; assay: Growth factor stimulated phospho-JNK, Western blot; conditions: for phospho-JNK level, short-term stimulation: 5-30 min stimulation
Source text: as §2
(§5) The potential mechanisms by which the differential effects of insulin, IGF1 and PDGF might occur were explored by examining pathways, which mediate PNET2 neuronal apoptosis and neuritic sprouting. […] Western blot analysis was performed with cell lysates obtained from cultures stimulated with insulin, IGF1, or PDGF for 0-30 minutes or 24 hours with equivalent protein loading (60 μg/sample). The membranes were probed using antibodies to Erk, phospho-Erk, Jun, and phospho-JNK. […] In contrast, after 24 hours of AD7c-NTP gene induction and growth factor stimulation, high levels of phospho-Erk MAPK were detected in the IGF-1 and PDGF-stimulated cultures, but not in the serum-starved or insulin-stimulated cultures. […] In contrast, the levels of c-fos transcription factor were equally expressed after 24 hours IPTG induction of AD7c-NTP expression and either serum starvation or stimulation with insulin, IGF1 or PDGF.

[7] = tested on: phospho-tau; assay: phospho-tau expression, Western blot / MICE assay; conditions: PNET2 cells induced to express AD7c-NTP; relative to PDGF-stimulated cultures
Source text: as §2, with “For the immunoprecipitation studies, Western blot analysis of phospho-Erk, pJNK, and p38, and the PI3 kinase assays, the cells were harvested in Triton lysis buffer supplemented with protease and phosphatase inhibitors.” left out
as §4

[8] = tested on: PNET2 cells induced to express AD7c-NTP; assay: Crystal violet viability assay; conditions: 3 mM IPTG-induced AD7c-NTP; relative to un-induced FCS-stimulated and IPTG-induced NGF or PDGF stimulated cultures
Protocol: as §1
Viability was measured by a standard crystal violet assay. Crystal violet dye labels only viable cells. The assays were performed with cells seeded into 96-well plates at a density of 2×10^4 cells/well. The absorbances were measured using a Spectracount plate reader (Packard, Meriden, Conn.). The crystal violet absorbances increased linearly with cell density between 10^4 and 5×10^5 cells/well.
Cells were serum-starved for 24 hours. However, since several hours of IPTG stimulation were required to induce AD7c-NTP gene expression or CAT activity, IPTG (3 mM) was added to the cultures after 16 hours of serum-starvation, i.e. 8 hours prior to growth factor stimulation. […]
Increased cell loss associated with insulin-stimulation and AD7c-NTP over-expression Cell viability was quantified using the microculture Crystal violet assay with cells seeded into 96-well plates. […]

[9] = tested on: phospho-Erk MAPK; assay: Growth factor stimulated phospho-Erk MAPK, Western blot; conditions: for phospho-Erk MAPK level, short-term stimulation: 0-30 minutes stimulation; for phospho-Erk MAPK level, 24 hours: 24 hours of AD7c-NTP induction and growth factor stimulation
Source text: as §2, §5

[10] = tested on: Bcl-2; assay: Bcl-2 expression, Western blot / MICE assay; conditions: PNET2 cells induced to express AD7c-NTP, growth factor stimulated
Source text: as §2, §3

[11] = tested on: PY-PI3 kinase (total PI3 kinase); assay: PI3 kinase activity in anti-phospho-tyrosine (PY) immunoprecipitates
Protocol: (§6) The cells were harvested in Triton lysis buffer supplemented with protease and phosphatase inhibitors. Total PI3K was immunoprecipitated from 500 μg protein in cell lysates using rabbit polyclonal antibodies to the p85 subunit of PI3K and Protein A sepharose. The immunoprecipitants were incubated for 5 minutes at room temperature with 10 μg of sonicated phosphatidylinositol in HEPES buffer (200 mM HEPES, 4 mM EGTA, 4 mM sodium phosphate, pH 7.0). Reactions were initiated by the addition of 5 μCi [α^32p] ATP, 15 mM MgCl2, 150 mM ATP, 1.5 mM Tris-HCl, pH 7.4, and 15 mM NaCl. After 10 minutes incubation at 30° C., the reactions were stopped by the addition of HCl to a final concentration of 1.2 N, followed by chloroform/methanol extraction. Phosphorylated lipids were analyzed by thin layer chromatography using gel plates pre-coated with 1% oxalate (Merck, White House Station, N.J.). PI3K activity was measured with a phosphorimager.
PI3 kinase is an important mediator of neuronal survival. The pro-survival effects of PI3K are mediated through activation of Akt (protein kinase B) and phosphorylation of Bad to render it inactivated. Inhibition of PI3 kinase activity is associated with PNET2 cell apoptosis. Therefore, experiments were carried out to determine if growth factor stimulated PI3 kinase activity was inhibited in insulin or IGF-1-stimulated cultures. Such inhibition has been observed following chronic ethanol exposure. Since insulin and IGF-1 can activate PI3 kinase through the insulin-receptor substrate-1 (IRS-1) or through IRS-1-independent pathways, both IRS1-associated PI3 kinase and total PI3 kinase activities were measured. These studies were conducted using insulin or PDGF stimulated cultures in which AD7c-NTP gene expression was induced by 3 mM IPTG stimulation. […] Levels of PI3 kinase activity were measured in anti-phospho-tyrosine (PY) immunoprecipitates. […] Similarly, PI3 kinase activity was readily detected in the PY immunoprecipitates prepared with cells stimulated with insulin or PDGF.

[12] = tested on: IRS-1-associated PI3 kinase; assay: IRS-1-associated PI3 kinase activity; conditions: 3 mM IPTG-induced cultures, 30 minutes of stimulation
Protocol: as §6, with “After 10 minutes incubation at 30° C., the reactions were stopped by the addition of HCl to a final concentration of 1.2 N, followed by chloroform/methanol extraction.” left out
PI3 kinase is an important mediator of neuronal survival. […] Since insulin and IGF-1 can activate PI3 kinase through the insulin-receptor substrate-1 (IRS-1) or through IRS-1-independent pathways, both IRS1-associated PI3 kinase and total PI3 kinase activities were measured. […] Levels of PI3 kinase activity were measured in anti-phospho-tyrosine (PY) immunoprecipitates. […] Similarly, PI3 kinase activity was readily detected in the PY immunoprecipitates prepared with cells stimulated with insulin or PDGF.

| Substance | cell morphology [1] | p53 level [2] | NOS-3 level [3] | p25 level [4] | p21/Waf1 level [5] | phospho-JNK level, short-term stimulation [6] | phospho-JNK level, 24 hour time point [6] | phospho-tau level [7] | cell density (crystal violet) [8] | phospho-Erk MAPK level, short-term stimulation [9] | phospho-Erk MAPK level, 24 hours [9] | Bcl-2 level [10] | PY-PI3 kinase activity, short-term ([11]; 5-30 minutes, PDGF versus insulin-stimulated cultures) | PY-PI3 kinase activity, 24 or 48 hours ([11]; 24 or 48 hours of stimulation) | IRS-1-associated PI3 kinase activity [12] |
| --- | --- | --- | --- | --- | --- | --- | --- | --- | --- | --- | --- | --- | --- | --- | --- |
| IGF-1: Recombinant human IGF1 purchased from Sigma | two populations of cells | intermediate levels; also recorded: significantly increased levels | increased levels | significantly increased levels | significantly increased levels | much lower levels | no detectable phospho-JNK expression | increased levels | significantly reduced cell densities | increased levels | high levels | intermediate levels; also recorded: reduced levels | – | – | – |
| NGF: Recombinant human NGF purchased from Sigma | extensive neuritic growth with multipolar fine interconnecting processes and minimal evidence of on-going cell death | – | – | – | – | – | – | – | – | – | – | – | – | – | – |
| PDGF | extensive neuritic growth with multipolar fine interconnecting processes and minimal evidence of on-going cell death | no detectable p53 | – | – | – | much lower levels | no detectable phospho-JNK expression | – | – | minimal effect | high levels | high levels of Bcl-2 | consistently lower | similar | virtually undetectable |
